SMILES strings stand for the structures. Counter-ions that a name gives are not always drawn.

The results in this text go back to US7417053B2, “Pyrazolo[1,5-a]pyridine derivatives or pharmaceutically acceptable salts thereof” (Teijin Pharma Limited, priority 2005, dated 2008).

Sequence of recombinant human MAPKAP-K2 (P49137 whole entry): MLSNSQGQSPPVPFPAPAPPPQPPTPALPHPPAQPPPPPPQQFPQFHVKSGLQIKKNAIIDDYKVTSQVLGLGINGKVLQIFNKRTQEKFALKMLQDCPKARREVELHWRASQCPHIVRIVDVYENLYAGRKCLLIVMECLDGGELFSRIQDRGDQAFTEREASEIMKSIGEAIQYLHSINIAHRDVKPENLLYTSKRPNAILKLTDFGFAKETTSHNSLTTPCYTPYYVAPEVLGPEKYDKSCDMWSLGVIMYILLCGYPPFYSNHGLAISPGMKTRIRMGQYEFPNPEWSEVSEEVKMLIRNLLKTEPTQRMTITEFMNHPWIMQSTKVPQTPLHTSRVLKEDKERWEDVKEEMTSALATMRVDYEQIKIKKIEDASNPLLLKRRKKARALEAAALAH

For this test, the target named is recombinant human MAPKAP-K2 (Homo sapiens, UniProt P49137). Briefly: Inhibitory activity against MAPKAP-K2 enzyme (33P-ATP peptide phosphorylation). The test is classed as biochemical. The conditions noted are these: recombinant human MAPKAP-K2, ATP 20 μmol/L solution, room temperature 30 min; read-out: Activity Strength (MAPKAP-K2 IC50 value). Here is the method:
General Measurement Method for Determining the Inhibitory Activity Against MAPKAP-K2 enzyme
(Preparation of Solutions of Compounds)
Each compound was dissolved in DMSO to prepare a solution with a concentration of 20 mmol/L and this solution was stored at −20° C. This stock solution was diluted with DMSO successively to prepare solutions with 200-fold concentrations of a necessary range. These solutions were further diluted with water at a ratio of 1:20 to prepare solutions with 10-fold concentrations of a necessary range. Each of these solutions (5 μL) was used for each reaction in 50 μL-scale. Through the dilution series of all compounds, the final DMSO concentration was kept at 0.5%. Conventional tests for the compounds were carried out at a final concentration range from 100 μmol/L to 0.03 μmol/L. but in some cases, tests were carried out at lower concentrations, depending on activity.
(Measurements of MAPKAP-K2 Enzyme Activities)
To a 5% DMSO aqueous solution (5 μL) of a test compound, a solution (25 μL) containing a peptide substrate [peptide substrate 60 μmol/L, ATP 20 μmol/L, Tris buffer 60 mmol/L (pH 7.5), EGTA 0.2 mmol/L, β-mercaptoethanol 0.2%, magnesium acetate 20 mmol/L, [γ-33P]ATP 0.1 μCi (specific radioactivity ca. 110 TBq/mmol)] was added. The reaction was initiated by adding a solution (20 μL) containing MAPKAP-K2 enzyme [recombinant human MAPKAP-K2 10 mU, Tris buffer […] (pH 7.5), EGTA 0.1 mmol/L, β-mercaptoethanol 0.1%, BSA 0.1%]. After the reaction was carried out at room temperature for 30 min, 200 mmol/L phosphoric acid (50 μL) was added to quench the reaction, and 90 μL of the reaction mixture was adsorbed on a multiscreen PH plate (Millipore). The plate was washed with 100 mmol/L phosphoric acid. After the plate was dried, 30 μL of MicroScint-O (Perkin-Elmer) was added, and the count per minute was measured on a scintillation counter to determine the inhibitory activity. The peptide substrate was Lys-Lys-Leu-Asn-Arg-Thr-Leu-Ser-Val-Ala.
• % Reference=(X−B)/(Tot−B)×100 • % Inhibition=100−% Reference • X represents count per minute of the well with a test compound applied. • B represents count per minute of the well without the enzyme. • Tot represents count per minute of the well with only DMSO solvent and no test compound applied. (Calculation of MAPKAP-K2 Inhibitory Activity) • IC50 value represents a concentration of compound at which 50% inhibition is observed.
Turning to `CCc1nc2ccc(Nc3c(C)c(N[C@H]4CCCNC4)c(C#N)c4ccnn34)cc2s1` [Compound 118, 5-[((3S)-3-Piperidyl)amino]-7-[(2-ethylbenzothiazol-6-yl)amino]-6-methylpyrazolo[1,5-a]pyridine-4-carbonitrile trifluoroacetate salt], the IC50 (commonly the concentration that gives 50% inhibition) is less than 200 nM.

In the case of `CSc1ccccc1Nc1cc(N[C@H]2CC[C@H](N)CC2)c(C#N)c2ccnn12` [Compound 99, 5-(trans-4-Aminocyclohexylamino)-7-(2-methylthiophenylamino)pyrazolo[1,5-a]pyridine-4-carbonitrile trifluoroacetate salt], the half-maximal inhibitory concentration (IC50) fell in the range of 1000 to 10000 nM.

In the case of `CCOc1ccc(Nc2c(C)c(N[C@H]3CC[C@H](N)CC3)c(C#N)c3ccnn23)cc1` [Compound 102, 5-[(trans-4-Aminocyclohexyl)amino]-7-(4-ethoxyphenylamino)-6-methylpyrazolo[1,5-a]pyridine-4-carbonitrile trifluoroacetate salt], the IC50 was less than 200 nM.

Regarding `Cc1nc2ccc(Nc3cc(N[C@H]4CC[C@H](N)CC4)c(C#N)c4ccnn34)cc2s1` [Compound 96, 5-(trans-4-Aminocyclohexylamino)-7-(2-methylbenzothiazol-6-ylamino)pyrazolo[1,5-a]pyridine-4-carbonitrile trifluoroacetate salt], the IC50 was 200 to 1000 nM.

Turning to `CCOc1ccc(Nc2c(C)c(NCC3CCCN3)c(C#N)c3ccnn23)cc1` (stereo not drawn) [Compound 114, 7-[(4-Ethoxyphenyl)amino]-6-methyl-5-[(pyrrolidin-2-ylmethyl)amino]pyrazolo[1,5-a]pyridine-4-carbonitrile trifluoroacetate salt], the IC50 was in the range of 1000 to 10000 nM.

Regarding `CCOc1ccc(Nc2c(C)c(NCCC3CCCN3)c(C#N)c3ccnn23)cc1` (stereo not drawn) [Compound 129, 7-[1(4-Ethoxyphenyl)amino]-6-methyl-5-[2-(pyrrolidin-2-ylethyl)amino]pyrazolo[1,5-a]pyridine-4-carbonitrile trifluoroacetate salt], the IC50 was in the range of 1000 to 10000 nM.

Consider `CCOc1ccc(Nc2c(C)c(NCCCCCCN)c(C#N)c3ccnn23)cc1` [Compound 132, 5-[(6-Amionohexyl)amino]-7-[(4-ethoxyphenyl)amino]-6-methylpyrazolo[1,5-a]pyridine-4-carbonitrile trifluoroacetate salt], for which the IC50 lay in the range of 10000 to 100000 nM.

As to `CCOc1ccc(Nc2c(C)c(NCCCNC3CCCCC3)c(C#N)c3ccnn23)cc1` [Compound 120, 5-{[3-(Cyclohexylamino)propyl]amino}-7-[(4-ethoxyphenyl)amino]-6-methylpyrazolo[1,5-a]pyridine-4-carbonitrile trifluoroacetate salt], the IC50 lay within 1000 to 10000 nM.

As to `CCOc1ccc(Nc2c(C)c(N[C@H]3CC[C@H](NCc4ccccc4)CC3)c(C#N)c3ccnn23)cc1` [Compound 115, 7-[(4-Ethoxyphenyl)amino]-6-methyl-5-[trans-{4-(benzylamino)cyclohexyl]amino}pyrazolo[1,5-a]pyridine-4-carbonitrile trifluoroacetate salt], the IC50 lay within 200 to 1000 nM.

With `CCOc1ccc(Nc2c(C(C)C)c(N[C@H]3CCCNC3)c(C#N)c3ccnn23)cc1` [Compound 123, 5-[(3S)-3-Piperidylamino]-7-(4-ethoxyphenylamino)-6-(methylethyl)pyrazolo[1,5-a]pyridine-4-carbonitrile], the IC50 was less than 200 nM.

With `CCOc1ccc(Nc2c(C(C)C)c(N[C@H]3CC[C@H](N)CC3)c(C#N)c3ccnn23)cc1` [Compound 124, 5-(trans-4-Aminocyclohexylamino)-7-(4-ethoxyphenylamino)-6-(methylethyl)pyrazolo[1,5-a]pyridine-4-carbonitrile], the IC50 was less than 200 nM.

For the compound `C=CCc1c(N[C@H]2CCCNC2)c(C#N)c2ccnn2c1Nc1ccc(OCC)cc1` [Compound 86, 5-[(3S)-3-Piperidylamino]-7-(4-ethoxyphenylamino)-6-(2-propenyl)pyrazolo[1,5-a]pyridine-4-carbonitrile trifluoroacetate salt], the IC50 was less than 200 nM.
